Counter-ions that a name gives are not always drawn.
What was measured:
[1] = biological target: T1, human 5-hydroxytryptamine-2C (h5-HT2C) receptor (Homo sapiens, UniProt P28335); test: [125I]DOI binding to membranes of CHO cells expressing h5-HT2C receptor; conditions: read-out: 5-HT2C Binding Ki avg
T1 construct: expressed in transfected cells; host or cells: CHO (Chinese Hamster Ovary) cells; membrane preparation
T1 sequence (P28335 33-458): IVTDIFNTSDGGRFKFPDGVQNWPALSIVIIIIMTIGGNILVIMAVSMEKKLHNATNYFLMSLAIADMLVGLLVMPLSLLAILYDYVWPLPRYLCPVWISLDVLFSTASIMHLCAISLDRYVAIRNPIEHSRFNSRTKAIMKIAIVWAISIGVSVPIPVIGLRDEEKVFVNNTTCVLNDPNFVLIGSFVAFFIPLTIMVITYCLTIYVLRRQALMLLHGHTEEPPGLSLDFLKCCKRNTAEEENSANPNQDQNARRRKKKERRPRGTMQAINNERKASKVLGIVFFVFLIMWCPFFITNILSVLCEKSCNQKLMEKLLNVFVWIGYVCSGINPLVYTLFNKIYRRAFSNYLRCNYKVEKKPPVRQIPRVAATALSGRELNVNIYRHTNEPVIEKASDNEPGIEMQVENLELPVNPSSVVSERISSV

human 5-HT2C receptor = biological target: T2, human 5-HT2C receptor (Homo sapiens, UniProt P28335); test: calcium mobilization (FLIPR) in CHO cells stably expressing the human 5-HT2C receptor; format: cell-based
T2 sequence (P28335 33-458): T1 sequence (P28335 33-458)

[2] = obesity model, reduction of food intake in Zucker rats; format: in vivo
Protocol: (§1) To evaluate acute in vivo efficacy of various compounds, 7 weeks-old male C57BL/6J mice are obtained from The Jackson Laboratory (Bar Harbor, Me.) and 6 weeks-old lean Zucker fa/? rats are purchased from Charles River Laboratories (Wilmington, Mass.). Mice and rats are single housed in a temperature-controlled (25° C.) facility with a 12-h light/dark cycle. Animals are allowed normal chow diet (Rodent chow #5001, PharmaServ, Framingham, Mass.) and water ad libitum. After one week acclimation, animals are randomized to vehicle (saline) or treatment groups. Animals are fasted overnight (16 hrs) and orally dosed with vehicle or compounds. Thirty minutes after compound administration, animals are given a weighed amount of food, and food intake was recorded 30 minutes, 1 h, 2 h, 4 h, 7 h and 24 h after refeeding.
(§2) To assess in vivo efficacy of various 5-HT2C compounds on weight loss, 5 weeks-old male C57BL/6J-DIO mice were fed a high-fat high-sucrose diet (58 kcal % fat, 16.4 kcal % protein, 25.5 kcal % carbohydrate) for 11 weeks. 6 weeks-old male Zucker fa/fa rats purchased from Charles River Laboratories were also used. Mice and rats were single housed in a temperature-controlled (25° C.) facility with a 12-h light/dark cycle. Animals were allowed food and water ad libitum. After one week acclimation, animals were randomized to vehicle (saline) or treatment groups. Animals were orally dosed once daily for 14 days. Body weight, food consumption, and/or body composition (NMR) were recorded. Epidydimal adipose tissue was collected at the end of the study.

[3] = obesity model, reduction of food intake in C57BL/6J-DIO mice; format: in vivo
Protocol: as §1, §2

Q: Which melting point does the source give for `Cc1ccccc1-c1c(Cl)ccc2c1O[C@@H](CN)CC2` (as salt: hydrochloride) [Compound 69, ((2R)-7-Chloro-8-o-tolylchroman-2-yl)methanamine hydrochloride] here?
A: 155 °C

Q: For `NC[C@H]1CCc2ccc(F)c(-c3ccccc3Cl)c2O1` (as salt: hydrochloride) [Compound 71, ((2R)-8-(2-chlorophenyl)-7-fluorochroman-2-yl)methanamine hydrochloride], which melting point is on record?
A: 223 to 225 °C

Q: Which melting point does the source give for `Cc1cc(Cl)ccc1-c1c(F)ccc2c1O[C@@H](CN)CC2` (as salt: hydrochloride) [Compound 72, ((2R)-8-(4-Chloro-2-methylphenyl)-7-fluorochroman-2-yl)methanamine hydrochloride] here?
A: 100 to 102 °C

Q: Which results are given for `NC[C@H]1CCc2cccc(-c3c(Cl)cccc3Cl)c2O1` [Compound 36, {[(2R)-8-(2,6-dichlorophenyl)-3,4-dihydro-2H-chromen-2-yl]methyl}amine hydrochloride]?
A: Ki [1]: ≤ 10 nM; Emax (human 5-HT2C receptor; CHO, read-out: 5-HT2C Function EMax (%)): 80%; EC50 (human 5-HT2C receptor; calcium mobilization, read-out: 5-HT2C Function EC50): < 50 nM; % Reduction food intake (vs vehicle) ([2]; 30 mpk oral, 0.5 hour): 0 ± 16%; % Reduction food intake (vs vehicle) ([2]; 30 mpk oral, 2 hours): 0 ± 8%; % Reduction food intake (vs vehicle) ([2]; 30 mpk oral, 4 hours): 0 ± 9%; % Reduction food intake (vs vehicle) ([2]; 50 mpk oral, 0.5 hour): 58 ± 9%; % Reduction food intake (vs vehicle) ([2]; 50 mpk oral, 2 hours): 11 ± 17%; % Reduction food intake (vs vehicle) ([2]; 50 mpk oral, 4 hours): 0 ± 13%; % Reduction food intake (vs vehicle) ([3]; 30 mpk oral, 0.5 hour): 86 ± 11%; % Reduction food intake (vs vehicle) ([3]; 30 mpk oral, 2 hours): 72 ± 7%; % Reduction food intake (vs vehicle) ([3]; 30 mpk oral, 4 hours): 65 ± 8%; % Reduction food intake (vs vehicle) ([3]; 50 mpk oral, 0.5 hour): 83 ± 6%; % Reduction food intake (vs vehicle) ([3]; 50 mpk oral, 2 hours): 77 ± 6%; % Reduction food intake (vs vehicle) ([3]; 50 mpk oral, 4 hours): 67 ± 9%

Reference: patent US7365095B2, “Chromane and chromene derivatives and uses thereof” (Wyeth, priority 2005, dated 2008)
